Assay results reported in patent US20260000698A1 (priority 2022, published 2026).
Like-named read-outs stand apart in the source and are kept apart here. Marks after values point to notes of the source that are not given here.

Tests used:
[1] = Liver S9 stability assay, mouse liver S9; settings: n = 2, mean±SD; for Mouse Liver S9 Stability t1/2, Phase II: cofactor UDPGA
SARS-CoV-2 Nsp14 MTase = SARS-CoV-2 Nsp14 MTase (Severe acute respiratory syndrome coronavirus 2, UniProt P0DTD1); test: biochemical; assay type: biochemical
[2] = system: SARS-CoV-2 isolate USA-WA1/2020
[3] = not given; remark: listed apart in the source
[4] = Plasma stability assay, human plasma; assay type: in vitro ADME
Procedure: (§1) Plasma stability assay. The plasma stability assay was performed in triplicate by incubating each selected compound (1 μmol/L final concentration) in normal mouse (CD-1) or human plasma (Innovative Research; Novi, MI, USA) diluted to 80% with 0.1 mol/L potassium phosphate buffer (pH 7.4) at 37° C. At 0, 1, 3, 6, and 24 h, a 50 μL aliquot of the plasma mixture was taken and quenched with 150 μL of acetonitrile containing 0.1% formic acid. The samples were then vortexed and centrifuged at 15,000 rpm (Eppendorf centrifuge 5424R; Enfield, CT, USA) for 5 min. The supernatants were collected and analyzed by LC-MS/MS to determine the in vitro plasma half-life (t1/2).

[5] = Plasma stability assay, mouse plasma; assay type: in vitro ADME, mouse (CD-1)
Procedure: as §1

[6] = Parallel artificial membrane permeability assay (PAMPA); assay type: in vitro ADME
Procedure: Parallel artificial membrane permeability assay (PAMPA).^5 The membrane permeability of selected compounds was evaluated using the Corning® BioCoat™ Pre-coated PAMPA Plate System (Corning 353015; Glendale, AZ, USA). The pre-coated plate assembly, which was stored at −20° C., was taken to thaw for 30 min at room temperature. The permeability assay was carried out in accordance with the manufacturer's protocol. Briefly, the 96-well filter plate, pre-coated with lipids, was used as the permeation acceptor and a matching 96 well receiver plate was used as the permeation donor. Compound solutions were prepared by diluting the 10 mmol/L DMSO stock solutions with 10% methanol in DPBS to a final concentration of […]. The compound solutions were added to the wells (300 μL/well) of the receiver plate and DPBS with 10% methanol was added to the wells (200 μL/well) of the pre-coated filter plate. The filter plate was then coupled with the receiver plate and the plate assembly was incubated at 25° C. without agitation for 5 h. At the end of the incubation, the plate was separated and the final concentrations of compounds in both donor wells and acceptor wells were analyzed using LC-MS/MS. Permeability of a compound was calculated using the Eq. (1):
where A=filter area (0.3 cm^2), VD=donor well volume (0.3 mL), VA=acceptor well volume (0.2 mL), t=incubation time (seconds), CA(t)=compound concentration in acceptor well at time t, CD(t)=compound concentration in donor well at time t, and Ceq was calculated using the Eq. (2): […]
A cutoff criterion of Pe value at […] was used to classify the compounds into high and low permeability according to the literature report of this PAMPA plate system^1.

[7] = Liver S9 stability assay, human liver S9; settings: n = 2, mean±SD
[8] = system: SARS-CoV-2 isolate USA-WA1/2020; test: microbe, parasite or virus in culture; settings: for EC50: Severe acute respiratory syndrome coronavirus 2, A549-ACE2, 48 h
A549/ACE2/TMPRSS2 cells = test: in vitro; settings: A549/ACE2/TMPRSS2 cells
Procedure: (§2) Percentage of infected cells was determined by dividing the number of infected cells by the total number of cells per well. The percentage of infected cells and total number of cells for each treatment was plotted into GraphPad prism (GraphPad Software; San Diego, CA, USA) to perform a non-linear regression analysis, generate infectious dose-response curves and to calculate EC50 and CC50 values.
(§3) Viability assays for the non-infected A549/ACE2/TMPRSS2 cells were performed using the 3-(4,5-dimethylthiazol-2-yl)-5-(3-carboxymethoxyphenyl)-2-(4-sulfophenyl)-2H-tetrazolium (MTS)-based tetrazolium reduction CellTiter 96 Aqueous Non-Radioactive cell proliferation assay (Promega G5430; Madison, WI) as described. Assays were conducted using parallel plates to those used in the immunofluorescence assay. Experimental details (cell line, number of cells seeded and incubation time) corresponded to those used in the immunofluorescence assay above. The data obtained were used to calculate the CC50 value using GraphPad Prism software.

[9] = Solubility as observed in antiviral testing
in vitro = settings: human
Procedure: as §2, §3

[10] = LC-MS/MS detection of SAH, read-out: MTase IC50

Nc1ncnn2c([C@@H]3O[C@H](CNS(=O)(=O)c4ccc5ccccc5c4)[C@@H](O)[C@H]3O)ccc12 [Compound 10, N-(((2R,3S,4R,5S)-5-(4-Aminopyrrolo[2,1-f][1,2,4]triazin-7-yl)-3,4-dihydroxytetrahydrofuran-2-yl)methyl)naphthalene-2-sulfonamide]
Mouse Liver S9 Stability t1/2, Phase I ([1]; cofactor NADPH): 28.9 ± 0.3 min | Mouse Liver S9 Stability t1/2, Phase II [1]: >45^e min | MTase inhibitory activity (SARS-CoV-2 Nsp14 MTase): comparable to that of 3 | IC50 (SARS-CoV-2 Nsp14 MTase; [10]): 0.093 µM | stability in mouse S9 phase I reactions: surprisingly labile | therapeutic index (TI=CC50/EC50) ([2]; CC50/EC50): greater than 139 | stability in human liver S9 fractions [3]: similarly stable | Plasma Stability t1/2, Human ([4]; human plasma, 37° C., n = 3): >24^d h | stability in human plasma ([4]; human, plasma): similarly stable | Plasma Stability t1/2, Mouse ([5]; mouse plasma, 37° C., n = 3): >24^d h | stability in mouse plasma ([5]; mouse, plasma): similarly stable | passive diffusion rate in PAMPA ([6]; PAMPA): equally low | PAMPA Permeability Pe ([6]; n = 6, mean±SD, 25° C., 5 h): 0.2 ± 0.1 10^−6 cm/s | Human Liver S9 Stability t1/2, Phase I ([7]; cofactor NADPH): 842 ± 210 min | Human Liver S9 Stability t1/2, Phase II ([7]; cofactor UDPGA): >45^e min | EC50 [8]: 0.72 µM | CC50 (A549/ACE2/TMPRSS2 cells): > 100 µM

CC(C)C(=O)O[C@@H]1[C@H](OC(=O)C(C)C)[C@@H](CNS(=O)(=O)c2ccc3ccccc3c2)O[C@H]1n1cnc2c(N)ncnc21 [Compound 7, (2R,3R,4R,5R)-2-(6-Amino-9H-purin-9-yl)-5-((naphthalene-2-sulfonamido)methyl)tetrahydrofuran-3,4-diyl bis(2-methylpropanoate)]
solubility [9]: low solubility | antiviral activity ([2]; A549 AT cells): showed antiviral activity | EC50 [8]: ~97 µM | CC50 (A549/ACE2/TMPRSS2 cells): > 100 µM

Nc1ncnn2c([C@@H]3O[C@H](CNS(=O)(=O)c4ccc5ccccc5c4)[C@@H](O)[C@H]3O)cc(I)c12 [Compound 49, N-(((2R,3S,4R,5S)-5-(4-Amino-5-iodopyrrolo[2,1-f][1,2,4]triazin-7-yl)-3,4-dihydroxytetrahydrofuran-2-yl)methyl)naphthalene-2-sulfonamide]
IC50 (SARS-CoV-2 Nsp14 MTase; [10]): 0.046 µM | EC50 [8]: 11 µM | CC50 (in vitro): 28 µM

Nc1ncnn2c([C@@H]3O[C@H](CNS(=O)(=O)c4cc5ccccc5s4)[C@@H](O)[C@H]3O)ccc12 [Compound 13, N-(((2R,3S,4R,5S)-5-(4-aminopyrrolo[2,1-f][1,2,4]triazin-7-yl)-3,4-dihydroxytetrahydrofuran-2-yl)methyl)benzo[b]thiophene-2-sulfonamide]
IC50 (SARS-CoV-2 Nsp14 MTase): 0.042 µM | EC50 [8]: 1.6 µM | CC50 (in vitro): > 100 µM

CCN(C[C@H]1C[C@@H](n2cnc3c(N)ncnc32)[C@@H](O)[C@H]1O)S(=O)(=O)c1ccc2ccccc2c1 [Compound A4, N-(((1R,2S,3R,4R)-4-(6-Amino-9H-purin-9-yl)-2,3-dihydroxycyclopentyl)methyl)-N-ethylnaphthalene-2-sulfonamide]
IC50 (SARS-CoV-2 Nsp14 MTase; [10]): 5.1 µM | inhibition at 10 µM ([8]; Severe acute respiratory syndrome coronavirus 2, A549-ACE2, read-out: % inhibition at 10 μM (EC50)): 34% | CC50 (in vitro): > 100 µM

O=c1ccc2ccc(O)cc2o1 [Umbelliferone, reference compound]
Mouse Liver S9 Stability t1/2, Phase II [1]: 0.8 ± 0.005 min
